Measured values published in ChEMBL document CHEMBL2046276, “Molecular cloning, characterization, and inhibition studies of a β-carbonic anhydrase from Malassezia globosa, a potential antidandruff target” (J Med Chem, 2012).
Converted amounts (≈) assume the structure as drawn. The source made the active and inactive calls. The rule behind the calls is not given here.

Tests used:
[1] = microbe, parasite or virus in culture; conditions: Malassezia globosa, CBS 7966, 168 h
Malassezia furfur = assay: microbe, parasite or virus in culture; conditions: CBS 9569, 168 h
Malassezia pachydermatis [2] = assay: microbe, parasite or virus in culture; conditions: CBS 6536, 168 h
Malassezia dermatis = assay: microbe, parasite or virus in culture; conditions: CBS 9145, 168 h
Carbonic anhydrase = molecular target: T1, Carbonic anhydrase (Candida albicans (strain SC5314 / ATCC MYA-2876) (Yeast), UniProt Q5AJ71)
T1 sequence (Q5AJ71 whole entry): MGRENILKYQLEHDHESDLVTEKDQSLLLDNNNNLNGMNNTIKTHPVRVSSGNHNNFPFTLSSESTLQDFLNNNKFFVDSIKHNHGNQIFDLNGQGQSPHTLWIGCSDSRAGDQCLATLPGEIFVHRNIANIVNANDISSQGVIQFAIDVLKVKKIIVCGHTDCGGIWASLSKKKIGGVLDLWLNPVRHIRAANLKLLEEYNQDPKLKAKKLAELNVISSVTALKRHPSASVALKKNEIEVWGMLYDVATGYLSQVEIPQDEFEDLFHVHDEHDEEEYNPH

Malassezia pachydermatis [3] = assay: Antimicrobial activity against Malassezia pachydermatis infected in CD-1 mouse model of dandruff assessed as fungal hyphae fragmentation at 5% cream administered once daily for 6 days measured daily for 20 days; assay type: functional
Malassezia pachydermatis [4] = assay: Antimicrobial activity against Malassezia pachydermatis infected in CD-1 mouse model of dandruff assessed as improvement in skin appearance at 5% cream administered once daily for 6 days measured daily for 20 days; assay type: functional
Malassezia pachydermatis [5] = assay: Antimicrobial activity against Malassezia pachydermatis infected in CD-1 mouse model of dandruff assessed as improvement in skin appearance at 2% cream administered once daily for 6 days measured daily for 20 days; assay type: functional
Malassezia pachydermatis [6] = assay: Antimicrobial activity against Malassezia pachydermatis infected in CD-1 mouse model of dandruff assessed as fungal hyphae fragmentation at 2% cream administered once daily for 6 days measured daily for 20 days; assay type: functional

Row | SMILES | MIC [1] | MIC (Malassezia furfur) | MIC (Malassezia pachydermatis [2]) | MIC (Malassezia dermatis) | Ki (Carbonic anhydrase) | Activity (Malassezia pachydermatis [3]) | Activity (Malassezia pachydermatis [4]) | Activity (Malassezia pachydermatis [5]) | Activity (Malassezia pachydermatis [6])
1 | NS(=O)(=O)c1ccccc1 [BENZENESULFONAMIDE] | 320 µg/mL (≈ 2040 µM) | 160 µg/mL (≈ 1020 µM) | 160 µg/mL (≈ 1020 µM) | > 640 µg/mL | 2360 nM |  |  |  | 
2 | NS(=O)(=O)c1cc(Cl)c(Cl)c(S(N)(=O)=O)c1 [DICHLORPHENAMIDE] | 320 µg/mL (≈ 1050 µM) | > 640 µg/mL | > 640 µg/mL | > 640 µg/mL |  |  |  |  | 
3 | NS(=O)(=O)Nc1ccc(Br)cc1 |  |  |  |  | 763 nM |  |  |  | 
4 | Nc1cc(Cl)c(S(N)(=O)=O)cc1S(N)(=O)=O | 640 µg/mL (≈ 2240 µM) | 640 µg/mL (≈ 2240 µM) | 640 µg/mL (≈ 2240 µM) | 640 µg/mL (≈ 2240 µM) |  |  |  |  | 
5 | Nc1ccccc1S(N)(=O)=O | 640 µg/mL (≈ 3720 µM) | 640 µg/mL (≈ 3720 µM) | > 640 µg/mL | 640 µg/mL (≈ 3720 µM) |  |  |  |  | 
6 | NS(=O)(=O)c1ccc(C(=O)O)cc1 [CARZENIDE] | 640 µg/mL (≈ 3180 µM) | > 640 µg/mL | 640 µg/mL (≈ 3180 µM) | > 640 µg/mL |  |  |  |  | 
7 | NS(=O)(=O)Oc1ccc(Br)cc1 |  |  |  |  | 715 nM |  |  |  | 
8 | NS(=O)(=O)c1ccc(Br)cc1 | 320 µg/mL (≈ 1360 µM) | 320 µg/mL (≈ 1360 µM) | 320 µg/mL (≈ 1360 µM) | 320 µg/mL (≈ 1360 µM) | 894 nM |  |  |  | 
9 | NCc1ccc(S(N)(=O)=O)cc1 [MAFENIDE] | 160 µg/mL (≈ 859 µM) | 320 µg/mL (≈ 1720 µM) | 160 µg/mL (≈ 859 µM) | 160 µg/mL (≈ 859 µM) |  |  |  |  | 
10 | NS(=O)(=O)Nc1ccccc1 [PHENYLSULFAMIDE] |  |  |  |  | 1910 nM |  |  |  | 
11 | NCCc1ccc(S(N)(=O)=O)cc1 | 320 µg/mL (≈ 1600 µM) | 640 µg/mL (≈ 3200 µM) | 640 µg/mL (≈ 3200 µM) | 640 µg/mL (≈ 3200 µM) |  | Active | 67% |  | 
12 | Cc1ccc(S(N)(=O)=O)cc1 [P-TOLUENESULFONAMIDE] | 160 µg/mL (≈ 934 µM) | 640 µg/mL (≈ 3740 µM) |  |  |  |  |  |  | 
13 | NS(=O)(=O)Oc1ccccc1 [PHENYLSULFAMATE] |  |  |  |  | 1970 nM |  |  |  | 
14 | Nc1ccc(S(N)(=O)=O)cc1 [SULFANILAMIDE] | 80 µg/mL (≈ 465 µM) | 80 µg/mL (≈ 465 µM) | 10 µg/mL (≈ 58.1 µM) | 160 µg/mL (≈ 929 µM) |  |  |  |  | 
15 | CC(=O)N1CCN(c2ccc(OCC3COC(Cn4ccnc4)(c4ccc(Cl)cc4Cl)O3)cc2)CC1 (configuration not stated) |  |  |  |  |  |  |  | Active | Active
16 | Nc1cc(C(F)(F)F)c(S(N)(=O)=O)cc1S(N)(=O)=O [2,4-DISULFAMYLTRIFLUOROMETHYLANILINE] | 320 µg/mL (≈ 1000 µM) | > 640 µg/mL | > 640 µg/mL | > 640 µg/mL |  |  |  |  | 
